Reference: paper PMC6222422, “Synthesis and Biological Evaluation of Novel Indole-Derived Thioureas” (Molecules : A Journal of Synthetic Chemistry and Natural …, 2018)

Key:
BVDV = test: microbe, parasite or virus in culture; type: cell-based, bovine viral diarrhoea virus; details: Bovine viral diarrhea virus isolates and strains, MDBK, in Bos taurus, read-out: BVDV EC50
YFV = test: microbe, parasite or virus in culture; type: cell-based; details: Yellow fever virus, BHK, read-out: YFV EC50
Cytotoxicity, MTT method [1] = details: cattle (Bos taurus)
Cytotoxicity, MTT method [2] = details: Syrian hamster (Mesocricetus auratus)
RSV = test: microbe, parasite or virus in culture; type: cell-based, human respiratory syncytial virus; details: for EC50: human respiratory syncytial virus, Vero 76, read-out: RSV EC50
Cytotoxicity, MTT method [3] = details: African green monkey (Cercopithecus aethiops)
CV-B5 = test: microbe, parasite or virus in culture; type: cell-based, coxsackievirus B5; details: Enterovirus B, CVB5, Vero 76, read-out: CV-B5 EC50
Sb-1 = test: microbe, parasite or virus in culture; type: cell-based, poliovirus type-1; details: Enterovirus C, Vero 76, read-out: Sb-1 EC50
Reo-1 = test: microbe, parasite or virus in culture; type: cell-based, reovirus type-1; details: Reovirus sp., BHK, read-out: Reo-1 EC50
VSV = test: microbe, parasite or virus in culture; type: cell-based; details: Vesicular stomatitis virus, Vero 76, read-out: VSV EC50
VV = test: microbe, parasite or virus in culture; type: cell-based; details: Orthopoxvirus vaccinia, Vero 76, read-out: VV EC50
HSV-1 = test: microbe, parasite or virus in culture; type: cell-based, human herpes 1; details: Human alphaherpesvirus 1, Vero 76, read-out: HSV-1 EC50
Cytotoxicity, MTT method [4] = details: human
HIV-1 = test: microbe, parasite or virus in culture; details: Human immunodeficiency virus 1, MT4, read-out: HIV-1 EC50

Compound: C[C@@]1(O)[C@H](O)[C@@H](CO)O[C@H]1n1cnc2c(=O)[nH]c(N)nc21 [2′-C-methyl-guanosine, 2′-C-methylguanosine, reference compound]
- EC50 (BVDV): 1.1 ± 0.1 µM
- EC50 (YFV): 1.9 ± 0.1 µM
- CC50 (Cytotoxicity, MTT method [1]): > 10 µM
- CC50 (Cytotoxicity, MTT method [2]): > 10 µM

Compound: O=c1cnn([C@@H]2O[C@H](CO)[C@@H](O)[C@H]2O)c(=O)[nH]1 [6-Aza-uridine, 6-azauridine, reference compound]
- EC50 (RSV): 1.4 ± 0.06 µM
- CC50 (Cytotoxicity, MTT method [3]): 12 µM

Compound: COc1ccc(NC(=S)NCCc2c[nH]c3ccccc23)cc1 [Compound 2, 1-(2-(1H-Indol-3-yl)ethyl)-3-(4-methoxyphenyl)thiourea]
- EC50 (BVDV): > 100 µM
- EC50 (YFV): > 44 µM
- EC50 (CV-B5): > 56 µM
- EC50 (Sb-1): > 56 µM
- EC50 (Reo-1): > 44 µM
- EC50 (RSV): > 56 µM
- EC50 (VSV): > 56 µM
- EC50 (VV): > 56 µM
- EC50 (HSV-1): > 56 µM
- melting point: 146 to 148 °C
- CC50 (Cytotoxicity, MTT method [4]): 32 µM
- CC50 (Cytotoxicity, MTT method [1]): > 100 µM
- CC50 (Cytotoxicity, MTT method [2]): 44 µM
- CC50 (Cytotoxicity, MTT method [3]): 56 µM
- EC50 (HIV-1): > 32 µM

Compound: Cc1ccc(NC(=S)NCCc2c[nH]c3ccccc23)cc1 [Compound 3, 1-(2-(1H-Indol-3-yl)ethyl)-3-(4-methylphenyl)thiourea]
- EC50 (BVDV): ≥ 100 µM
- EC50 (YFV): > 16 µM
- EC50 (CV-B5): > 75 µM
- EC50 (Sb-1): > 75 µM
- EC50 (Reo-1): > 16 µM
- activity against RSV (in words) (RSV): moderately active
- EC50 (RSV): 20 ± 3 µM
- EC50 (VSV): > 75 µM
- EC50 (VV): > 75 µM
- EC50 (HSV-1): > 75 µM
- CC50 (Cytotoxicity, MTT method [4]): 33 µM
- CC50 (Cytotoxicity, MTT method [1]): > 100 µM
- CC50 (Cytotoxicity, MTT method [2]): 16 µM
- CC50 (Cytotoxicity, MTT method [3]): 75 µM
- EC50 (HIV-1): > 33 µM
